Assay results from patent EP0385680B1, “Heterocyclic ethers as 5-lipoxygenase inhibitors” (ZENECA LIMITED, priority 1989, dated 1990).

Key:
5-LO = target: T1, 5-LO (Homo sapiens, UniProt P09917); assay: Test b): in vitro heparinised human blood challenged with calcium ionophore A23187, radioimmunoassay of LTB4; type: cell-based; settings: A23187 challenge, read-out: IC₅₀ against LTB₄
T1 construct: incubating a test compound with heparinised human blood, prior to challenge with the calcium ionophore A23187; endogenous in cells; host or cells: blood cells in heparinised human whole blood
T1 sequence (P09917 1-674): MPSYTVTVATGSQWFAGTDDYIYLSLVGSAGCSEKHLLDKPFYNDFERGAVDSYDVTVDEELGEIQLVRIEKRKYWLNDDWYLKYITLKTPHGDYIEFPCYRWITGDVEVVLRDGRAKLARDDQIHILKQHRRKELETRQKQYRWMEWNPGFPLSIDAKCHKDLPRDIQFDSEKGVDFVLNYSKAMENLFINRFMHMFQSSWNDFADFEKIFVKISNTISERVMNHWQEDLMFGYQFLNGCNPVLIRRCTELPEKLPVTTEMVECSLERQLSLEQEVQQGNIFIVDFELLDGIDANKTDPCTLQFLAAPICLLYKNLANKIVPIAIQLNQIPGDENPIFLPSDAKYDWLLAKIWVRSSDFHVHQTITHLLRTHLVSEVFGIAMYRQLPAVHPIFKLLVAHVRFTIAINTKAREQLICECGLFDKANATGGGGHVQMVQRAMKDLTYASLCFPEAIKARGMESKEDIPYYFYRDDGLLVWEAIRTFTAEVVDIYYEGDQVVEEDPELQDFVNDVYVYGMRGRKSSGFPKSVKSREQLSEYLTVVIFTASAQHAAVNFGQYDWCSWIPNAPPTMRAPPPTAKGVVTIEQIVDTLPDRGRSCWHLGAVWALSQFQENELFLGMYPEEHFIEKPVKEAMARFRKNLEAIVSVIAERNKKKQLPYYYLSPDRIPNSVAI
Experimental: (§1) As stated previously, the heterocyclic ethers of the formula I are inhibitors of the enzyme 5-LO. […] This test provides a measure of the intrinsic inhibitory properties against soluble 5-LO in an extracellular environment. • b) An in vitro assay system involving incubating a test compound with heparinised human blood, prior to challenge with the calcium ionophore A23187 and then indirectly measuring the inhibitory effects on 5-LO by assaying the amount of LTB₄ using the specific radioimmunoassay described by Carey and Forder (F. Carey and R.A. Forder, Brit. […] The effects of a test compound on the enzyme cyclooxygenase (which is involved in the alternative metabolic pathway for arachidonic acid and gives rise to prostaglandins, thromboxanes and related metabolites) may be measured at the same time using the specific radioimmunoassay for thromboxane B₂(TxB₂) described by Carey and Forder (see above). […] It permits the selectivity of the inhibitory effect on 5-LO or cyclooxygenase to be assessed. • c) An ex vivo assay system, which is a variation of test b) above, involving administration of a test compound (usually orally as the suspension produced when a solution of the test compound in dimethylsulphoxide is added to carboxymethylcellulose), blood collection, heparinisation, challenge with A23187 and radioimmunoassay of LTB₄ and TxB₂. […]

cyclooxygenase = target: T2, cyclooxygenase (Homo sapiens, UniProt P23219); assay: Test b): in vitro heparinised human blood challenged with calcium ionophore A23187, radioimmunoassay of TxB2; type: cell-based; settings: A23187 challenge, read-out: IC₅₀ against TxB₂
T2 construct: against 5-LO and also cyclooxygenase in the presence of blood cells and proteins; endogenous in cells; host or cells: blood cells in heparinised human whole blood
T2 sequence (P23219 24-599): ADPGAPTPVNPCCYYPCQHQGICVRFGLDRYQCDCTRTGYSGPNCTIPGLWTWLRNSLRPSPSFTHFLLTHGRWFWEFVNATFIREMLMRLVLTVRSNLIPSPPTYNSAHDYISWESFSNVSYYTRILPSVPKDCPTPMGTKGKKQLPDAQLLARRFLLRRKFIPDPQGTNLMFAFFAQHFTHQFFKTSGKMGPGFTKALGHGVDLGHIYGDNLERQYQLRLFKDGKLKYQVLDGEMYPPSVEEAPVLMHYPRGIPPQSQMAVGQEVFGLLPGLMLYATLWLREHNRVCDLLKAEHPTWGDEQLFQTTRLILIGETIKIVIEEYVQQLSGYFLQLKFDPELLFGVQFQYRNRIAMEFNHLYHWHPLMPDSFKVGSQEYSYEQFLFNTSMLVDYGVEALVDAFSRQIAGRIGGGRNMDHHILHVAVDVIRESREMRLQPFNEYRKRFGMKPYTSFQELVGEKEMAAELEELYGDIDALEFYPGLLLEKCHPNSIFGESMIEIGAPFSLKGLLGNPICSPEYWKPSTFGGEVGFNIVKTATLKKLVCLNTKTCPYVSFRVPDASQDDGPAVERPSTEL
Experimental: as §1

| IC50 (5-LO) | IC50 (cyclooxygenase) | Compound |
| --- | --- | --- |
| 0.1 µM | – | C=CCOCC(CC)(OCC=C)c1cc(F)cc(OCc2ccc3c(ccc(=O)n3C)c2)c1 (stereo not drawn) [2-allyloxy-2-[5-fluoro-3-(1,2-dihydro-1-methyl-2-oxoquinolin-6-ylmethoxy)phenyl]but-1-yl allyl ether] |
| 1 µM | > 40 µM | CCC(COC)(OC)c1cccc(OCC#Cc2ccccn2)c1 (stereo not drawn) [2-methoxy-2-[3-(3-(2-pyridyl)prop-2-yn-1-yloxy)phenyl]but-1-yl methyl ether] |
